Test system: CXCL10 production
Assay: CXCL10 production inhibition test
Type: cell-based
Conditions: Endothelial cell; test compound 0.1 μmol/L; human umbilical vein-derived endothelial cells; TNFα 10 ng/mL; supernatant 72 hours after stimulation; ELISA; read-out: Rate of inhibition of CXCL10 production
Experimental: (CXCL10 Production Inhibition Test)
0.5×10^4 or 1×10^4 human umbilical vein-derived endothelial cells were suspended in 100 μL of an EGM-2 BulletKit medium (without GA) or a Medium-200 medium supplemented with an EGM-2 SingleQuots kit (without GA), inoculated to a 96-well plate and cultured overnight. 100 μL of a solution of each test compound diluted with the same medium as that used in the inoculation was added to the cultured cells (final concentration of the test compound: 0.1 μmol/L). 1 hour thereafter, TNFα was added thereto at a final concentration of 10 ng/mL. 72 hours after the stimulation, the supernatant was recovered, and the amount of CXCL10 produced in the culture supernatant was determined using an ELISA kit (Peprotech, 900-109).
The rate of inhibition was calculated according to the following expression: Rate of inhibition (%)=100−(Amount of CXCL10 produced in the presence of the test compound/Amount of CXCL10 produced in the absence of the test compound)×100

| Structure (SMILES) | inhibition at 0.1 µM |
| --- | --- |
| CCn1c(=O)cc(C2CCN(C)CC2)c2cc(C(=O)N(C)c3ccc(C)c(C)c3)ccc21 [Example 294, N-(3,4-dimethylphenyl)-1-ethyl-N-methyl-4-(1-methylpiperidin-4-yl)-2-oxo-1,2-dihydroquinoline-6-carboxamide] | ≥ 50% |
| CCn1c(=O)cc(C)c2cc(-c3cccnc3-c3ccccc3)ccc21 [Example 291, 1-ethyl-4-methyl-6-(2-phenylpyridin-3-yl)quinolin-2(1H)-one] | ≥ 50% |
| CCn1c(=O)cc(N2CCOCC2)c2cc(-n3c(-c4ccc(C(F)(F)F)cc4)c[nH]c3=O)ccc21 [Example 272, 1-ethyl-6-(2-oxo-5-(4-(trifluoromethyl)phenyl)-2,3-dihydro-1H-imidazol-1-yl)-4-(morpholin-4-yl)quinolin-2(1H)-one] | ≥ 50% |
| CCn1c(=O)cc(C2CC2)c2cc(-n3c(=O)cc(C)n3-c3ccccc3)ccc21 [Example 282a, 4-cyclopropyl-1-ethyl-6-(3-methyl-5-oxo-2-phenyl-2,5-dihydro-1H-pyrazol-1-yl)quinolin-2(1H)-one] | ≥ 50% |
| CCn1c(=O)cc(C2CC2)c2cc(-c3nc(C)nn3-c3ccccc3)ccc21 [Example 252] | ≥ 50% |
| CCn1c(=O)cc(C2CC2)c2cc(-c3nccnc3-c3ccccc3)ccc21 [Example 284, 4-cyclopropyl-1-ethyl-6-(3-phenylpyradin-2-yl)quinolin-2(1H)-one] | ≥ 50% |
| CCn1c(=O)cc(C2CC2)c2cc(-n3c(-c4ccc(C(F)(F)F)cc4)c[nH]c3=O)ccc21 [Example 268, 4-cyclopropyl-1-ethyl-6-(2-oxo-5-(4-(trifluoromethyl)phenyl)-2,3-dihydro-1H-imidazol-1-yl)quinolin-2(1H)-one] | ≥ 50% |
| CCn1c(=O)cc(C2CC2)c2cc(N3C(=O)C(C)C(=O)N3c3ccccc3)ccc21 (stereo not drawn) [Example 280, 1-(4-cyclopropyl-1-ethyl-2-oxo-1,2-dihydroquinolin-6-yl)-4-methyl-2-phenylpyrazolidine-3,5-dione] | ≥ 50% |
| CCn1c(=O)cc(N2CCOCC2)c2cc(-n3c(-c4ccc(Cl)cc4)c[nH]c3=O)ccc21 [Example 245, 6-(5-(4-chlorophenyl)-2-oxo-2,3-dihydro-1H-imidazol-1-yl)-1-ethyl-4-(morpholin-4-yl)quinolin-2(1H)-one] | ≥ 50% |
| CCn1c(=O)cc(N2CCOCC2)c2cc(-n3c(-c4ccccc4)c[nH]c3=O)ccc21 [Example 3, 1-ethyl-4-(morpholin-4-yl)-6-(2-oxo-5-phenyl-2,3-dihydro-1H-imidazol-1-yl)quinolin-2(1H)-one] | ≥ 50% |
| CCn1c(=O)cc(N2CCOCC2)c2cc(-n3c(-c4ccc(C(F)(F)F)cc4)cn(C)c3=O)ccc21 [Example 270, 1-ethyl-6-(3-methyl-2-oxo-5-(4-(trifluoromethyl)phenyl)-2,3-dihydro-1H-imidazol-1-yl)-4-(morpholin-4-yl)quinolin-2(1H)-one] | ≥ 50% |
| CCn1c(=O)cc(C2CC2)c2cc(-n3c(-c4ccc(Cl)cc4)cn(C)c3=O)ccc21 [Example 269, 6-(5-(4-chlorophenyl)-3-methyl-2-oxo-2,3-dihydro-1H-imidazol-1-yl)-4-cyclopropyl-1-ethylquinolin-2(1H)-one] | ≥ 50% |
| CCn1c(=O)cc(C2CCN(C(C)=O)CC2)c2cc(C(=O)N(C)c3ccc(C)cc3)ccc21 [Example 290, 4-(1-acetylpiperidin-4-yl)-1-ethyl-N-methyl-N-(4-methylphenyl)-2-oxo-1,2-dihydroquinoline-6-carboxamide] | ≥ 50% |
| CCn1c(=O)cc(C2CCN(C)CC2)c2cc(C(=O)N(C)c3ccc(C)c(Cl)c3)ccc21 [Example 293, N-(3-chloro-4-methylphenyl)-1-ethyl-N-methyl-4-(1-methylpiperidin-4-yl)-2-oxo-1,2-dihydroquinoline-6-carboxamide] | ≥ 50% |
| CCCCn1cc(-c2ccccc2)n(-c2ccc3c(c2)c(N2CCOCC2)cc(=O)n3CC)c1=O [Example 264, 6-(3-butyl-2-oxo-5-pheynyl-2,3-dihydro-1H-imidazazol-1-yl)-1-ethyl-4-(morpholin-4-yl)quinolin-2(1H)-one] | ≥ 50% |
| CCn1cc(-c2ccccc2)n(-c2ccc3c(c2)c(N2CCOCC2)cc(=O)n3CC)c1=O [Example 266, 1-ethyl-6-(3-ethyl-2-oxo-5-phenyl-2,3-dihydro-1H-imidazol-1-yl)-4-(morpholin-4-yl)quinolin-2(1H)-one] | ≥ 50% |
| CCn1c(=O)cc(N2CCOCC2)c2cc(-c3nccn3-c3ccccc3)ccc21 [Example 257, 1-ethyl-4-(morpholin-4-yl)-6-(1-phenyl-1H-imidazol-2-yl)quinolin-2(1H)-one] | ≥ 50% |
| CCn1c(=O)cc(C2CC2)c2cc(N3C(=O)CC[C@H]3c3ccccc3)ccc21 [Example 254, 4-cyclopropyl-1-ethyl-6-((5S)-2-oxo-5-phenylpyrrolidin-1-yl)quinolin-2(1H)-one] | ≥ 50% |
| CCn1c(=O)cc(N2CCOCC2)c2cc(-c3cccnc3-c3ccccc3)ccc21 [Example 279, 1-ethyl-4-(morpholin-4-yl)-6-(2-phenylpyridin-3-yl)quinolin-2(1H)-one] | ≥ 50% |
| CCn1c(=O)cc(N2CCOCC2)c2cc(-n3c(-c4ccccc4)cn(CCN4CCOCC4)c3=O)ccc21 [Example 260, 1-ethyl-4-(morpholin-4-yl)-6-(3-(2-(morpholin-4-yl)ethyl)-2-oxo-5-phenyl-2,3-dihydro-1H-imidazol-1-yl)quinolin-2(1H)-one] | ≥ 50% |
| CCn1c(=O)cc(N2CCOCC2)c2cc(-n3c(-c4ccc(C)cc4)cn(C)c3=O)ccc21 [Example 273, 1-ethyl-6-(3-methyl-5-(4-methylphenyl)-2-oxo-2,3-dihydro-1H-imidazol-1-yl)-4-(morpholin-4-yl)quinolin-2(1H)-one] | ≥ 50% |
| CCn1c(=O)cc(C2CC2)c2cc(-n3c(-c4ccc(Cl)cc4)c[nH]c3=O)ccc21 [Example 271, 6-(5-(4-chlorophenyl)-2-oxo-2,3-dihydro-1H-imidazol-1-yl)-cyclopropyl-1-ethylquinolin-2(1H)-one] | ≥ 50% |
| CCn1c(=O)cc(C2CC2)c2cc(N(C)C(=O)c3ccccc3)ccc21 [Example 2, N-(4-cyclopropyl-1-ethyl-2-oxo-1,2-dihydroquinolin-6-yl)-N-methylbenzamide] | ≥ 50% |
| CCn1c(=O)cc(N2CCOCC2)c2cc(-n3ccnc3-c3ccccc3)ccc21 [Example 255] | ≥ 50% |
| CCn1c(=O)cc(N2CCOCC2)c2cc(-n3c(-c4ccccc4)cn(CCO)c3=O)ccc21 [Example 262, 1-ethyl-6-(3-(2-hydroxyethyl)-2-oxo-5-phenyl-2,3-dihydro-1H-imidazol-1-yl)-4-(morpholin-4-yl) quinolin-2(1H)-one] | ≥ 50% |
| CCn1c(=O)cc(C2CC2)c2cc(-n3c(-c4ccc(C(F)(F)F)cc4)cn(C)c3=O)ccc21 [Example 267, 4-cyclopropyl-1-ethyl-6-(3-methyl-2-oxo-5-(4-(trifluoromethyl)phenyl)-2,3-dihydro-1H-imidazol-1-yl)quinolin-2(1H)-one] | ≥ 50% |
| CCn1c(=O)cc(N2CCOCC2)c2cc(-n3c(-c4ccccc4)cn(C(C)C)c3=O)ccc21 [Example 247, 1-ethyl-4-(morpholin-4-yl)-6-(2-oxo-5-phenyl-3-(propan-2-yl)-2,3-dihydro-1H-imidazol-1-yl)quinolin-2(1H)-one] | ≥ 50% |

— patent US10696637B2, “Nitrogen-containing heterocyclic compound” (FUJIFILM Corporation, priority 2015, dated 2020)
